Source: ChEMBL document CHEMBL1150725, “Cytotoxic and antimicrobial alkaloids from the Fijian sponge Xestospongia caycedoi” (J Nat Prod, 1987)
Values after ≈ are worked out from the molar mass of the structure shown.

Key:
[1] = system: L1210; assay: Cytotoxicity against mouse L1210 cells; assay type: functional, cell-based
[2] = system: Staphylococcus aureus; assay: Antimicrobial activity against Staphylococcus aureus at 100 ug/disk; assay type: functional; conditions: read-out: IZ

COC1=C(C)C(=O)c2ccnc(CO)c2C1=O [RENIEROL]
IC50 [1]: 3 mg/L (≈ 12.9 µM) | zone of inhibition at 100 µg/disc [2]: 10 mm
